These results are taken from patent US8580977B2 (priority 2010, dated 2013).

Data set [1] relates to T1, PP-1.
T1 construct: other: less efficient / worse than TTN
As to the kind of experiment: PP inhibition assay, PP-1. Type of data set: biochemical. The note with it: for PP-1 inhibition relative to TTN: less efficient / worse than TTN; for IC50: read-out: in vitro inhibition (IC50) against PP-1. On the procedure: (§1) IR spectra were measured on a Bruker EQUINOX 55/S FT-IR/NIR spectrophotometer (Ettlingen, DE). Optical rotations were determined on a Perkin-Elmer 241 instrument at the sodium D line (589 nm). High-resolution mass spectrometry (HRMS) analyses were acquired on an IonSpec HiRes MALDI FT mass spectrometer (Lake Forest, Calif.) for […] or on an Agilent 1100 series LC/MSD Trap SL for HRESIMS (Santa Clara, Calif.). NMR data were recorded on a Varian Unity Inova 400 or 500 MHz NMR spectrometer (Varian, Inc., Palo Alto, Calif.). ^1H and ^13C NMR chemical shifts were referenced to residual solvent signals: δH 7.26 ppm and […] for CDCl3. ^1H-^1H COSY, HMQC, HMBC, HETLOC, gHSQMBC, and gDQCOSY were performed using either standard Varian pulse sequences or literature pulse sequences (Uhrin et al., 1998; Williamson et al., 2000). High-performance liquid chromatography (HPLC) analysis was carried out on a Varian HPLC system equipped with ProStar 210 pumps and a photodiode detector. Mobile phases used were buffer A (H2O) and buffer B (CH3CN). Analytical and semipreparative HPLC columns used were Alltech Alltima C18 columns, 250×4.6 mm, 5 μm and 250×10 mm, 5 respectively. Cytotoxity assays and PP inhibition assays for TTN and related analogues were performed as previously described for compound TTM and related congeners (Ju et al., 2009). Medium components and all other chemical solvents and reagents were purchased from Fisher Scientific (Fairlawn, N.J.). Silica gel 60 RP-18 (230-400 mesh, EMD Chemical Inc., Gibbstown, N.J.) was used for standard benchtop column chromatography. Amberlite XAD-16 resin was purchased from Sigma.
(§2) Compounds 3-7 were subjected to PP inhibition and cytotoxicity assays with 1 as a control (Ju et al., 2009). Assays focused specifically on the inhibition of PP-1 and PP-2A (Table 4), while cytotoxicity assays exploited the use of selected human cancer cell lines Du145, MCF7, and HCT-115 (Table 5).

The next data set deals with PP-2A. As to the kind of experiment: PP inhibition assay, PP-2A. Type of data set: biochemical. The note with it: for IC50: read-out: in vitro inhibition (IC50) against PP-2A. The method, then:
as §1, §2

A further data set deals with Du145, MCF7, and HCT-115. As to the kind of experiment: cytotoxicity against selected human cancer cell lines. Type of data set: cell-based. The note with it: Du145, MCF7, HCT-115. On the procedure:
as §1
Compounds 3-7 were subjected to PP inhibition and cytotoxicity assays with 1 as a control (Ju et al., 2009). Assays focused specifically on the inhibition of PP-1 and PP-2A (Table 4), while cytotoxicity assays exploited the use of selected human cancer cell lines Du145, MCF7, and HCT-115 (Table 5). […]

Data set [2] can be described thus: in vitro cytotoxicity assay, HCT-115. It is filed as cell-based. To be noted: HCT-115 cells; HCT-115 human cancer cell line. On the procedure:
as §1, with “Medium components and all other chemical solvents and reagents were purchased from Fisher Scientific (Fairlawn, N.J.). Silica gel 60 RP-18 (230-400 mesh, EMD Chemical Inc., Gibbstown, N.J.) was used for standard benchtop column chromatography. Amberlite XAD-16 resin was purchased from Sigma.” left out

Data set [3] in a line: in vitro cytotoxicity assay, Du145. The note with it: Du145 cells; Du145 human cancer cell line. It is filed as cell-based. The method, then: as §1, with “Medium components and all other chemical solvents and reagents were purchased from Fisher Scientific (Fairlawn, N.J.). Silica gel 60 RP-18 (230-400 mesh, EMD Chemical Inc., Gibbstown, N.J.) was used for standard benchtop column chromatography. Amberlite XAD-16 resin was purchased from Sigma.” left out

A short description of data set [4]: in vitro cytotoxicity assay, MCF7. To be noted: MCF7 cells; MCF7 human cancer cell line. It is filed as cell-based. The method, then:
as §1, with “Medium components and all other chemical solvents and reagents were purchased from Fisher Scientific (Fairlawn, N.J.). Silica gel 60 RP-18 (230-400 mesh, EMD Chemical Inc., Gibbstown, N.J.) was used for standard benchtop column chromatography. Amberlite XAD-16 resin was purchased from Sigma.” left out

The subject of a further data set is PP1. The note with it: literature; cited from earlier work.
In the next data set the test system is PP2A. To be noted: literature; cited from earlier work.
In a further data set the test system is activated T cells. To be noted: literature (Shim et al., 2002); cited from earlier work.
Data set [5] concerns PP-1. As to the kind of experiment: PP inhibition assay, PP-1. Type of data set: biochemical. The note with it: PP-1 over PP-2A. On the procedure:
as §1, §2

For orientation: IC50 means the concentration at which inhibition is half-maximal. Regarding `CC/C(=C\CC[C@H](C)C[C@@H](C)CC[C@H](O)[C@H](C)C(=O)C[C@@H](O)[C@H](C)[C@@H](C)OC(=O)C[C@@H](O)C1=C(C)C(=O)OC1=O)C(O)CC(=O)O` (stereo partly shown) [TTN F-1 (3)], in the data set on PP-1 [1], the “PP-1 inhibition relative to TTN” value is recorded as “approximately one order of magnitude” and the IC50 came to 170 ± 10 nM. Besides, in the data set with PP-2A, the “PP-2A inhibition relative to TTN” value is “about the same potency as TTN” and the IC50 came out at 640 ± 80 nM. In the data set with Du145, MCF7, and HCT-115, the “cytotoxicity (in words)” value was “inactive”.
For the compound `CCC(C=CC(=O)O)=CC(O)CC(C)CC(C)CCC(O)C(C)C(=O)CC(O)C(C)C(C)OC(=O)CC(O)C1=C(C)C(=O)OC1=O` [TTN D-3 (6)], the IC50 amounted to 16000 ± 3000 nM in [2]; 210 ± 30 nM with PP-1 [1]; 14000 ± 3000 nM in data set [3]; 11000 ± 3000 nM in data set [4]; 800 ± 60 nM in the data set on PP-2A. In addition, in the data set on PP-1 [1], the “PP-1 inhibition relative to TTN” value is listed as “approximately one order of magnitude”. Moreover, the “PP-2A inhibition relative to TTN” value with PP-2A is “about the same potency as TTN”.
On to `CCC(C=CC(=O)O)=CC(=O)CC(C)CC(C)CCC(O)C(C)C(=O)CC(O)C(C)C(C)OC(=O)CC(O)C1=C(C)C(=O)OC1=O` [TTN D-4 (7)], for which the IC50 in [2] was found to be 18000 ± 3000 nM; in data set [3], 13000 ± 4000 nM; in [4], 17000 ± 3000 nM; with PP-2A it was 920 ± 40 nM. Besides, in the data set with PP-1 [1], the “PP-1 inhibition relative to TTN” value is recorded as “approximately one order of magnitude”. Further, the “PP-2A inhibition relative to TTN” value in the data set on PP-2A is recorded as “about the same potency as TTN”.
In the case of `CO[C@H]([C@H](O)CC(=O)[C@@H](C)[C@@H](O)CC[C@@H](C)[C@@H]1O[C@]2(CC[C@@H](C)[C@H](CC[C@H](C)C(C)=O)O2)CC[C@@H]1C)[C@H](OC(=O)C[C@@H](O)C1=C(C)C(=O)OC1=O)C(C)C` [TTM, tautomycin], the IC50 in the data set on PP1 and in the data set with PP2A was 22 to 32 nM each time. The “preference for PP1 inhibition relative to PP2A” value in the data set with PP1 is reported as “slight preference for PP1”.
In the case of “Tautomycetin [TTN (1), reference compound]”, the “T cell proliferation inhibited at concentrations lower than those needed for maximal inhibition by cyclosporine A” value in the data set on activated T cells was 100 fold. Also, the PP-1 selectivity entry in the data set with PP-1 [5] is recorded as “about 27 fold”. For the same compound, the IC50 in the data set with PP-1 [1] is 15 ± 0.0008 nM; with PP1 it was 1.6 nM; in the data set on PP-2A it was 400 ± 40 nM; in the data set on PP2A, 62 nM.
Consider `CCC(/C=C/C(=O)O)=C\C(O)C[C@H](C)C[C@@H](C)CC[C@H](O)[C@H](C)C(=O)C[C@@H](O)[C@H](C)[C@@H](C)OC(=O)C[C@@H](O)C1=C(C)C(=O)OC1=O` (stereo partly drawn) [TTN D-2 (5)], for which, in the data set with PP-1 [1], the “PP-1 inhibition relative to TTN” value is “approximately three orders of magnitude worse” and the IC50 worked out at 9800 ± 100 nM. In the data set with PP-2A, the “PP-2A inhibition relative to TTN” value is “about two orders of magnitude worse” and the IC50 is 44000 ± 100 nM. Further, the “cytotoxicity (in words)” value in the data set with Du145, MCF7, and HCT-115 was “inactive”.
Regarding `CCC(/C=C/C(=O)O)=C\CC[C@H](C)C[C@@H](C)CC[C@H](O)[C@H](C)C(=O)C[C@@H](O)[C@H](C)[C@@H](C)OC(=O)C[C@@H](O)C1=C(C)C(=O)OC1=O` [TTN D-1 (4)], in the data set on PP-1 [1], the “PP-1 inhibition relative to TTN” value was “approximately one order of magnitude” and the IC50 stood at 130 ± 20 nM. Besides, in the data set with PP-2A, the “PP-2A inhibition relative to TTN” value was “about the same potency as TTN” and the IC50 came to 520 ± 50 nM. Besides, the “cytotoxicity (in words)” value in the data set on Du145, MCF7, and HCT-115 is “inactive”.
